Test results published in paper PMC4414309, “Target Modulation by a Kinase Inhibitor Engineered to Induce a Tandem Blockade of the Epidermal Growth Factor Receptor (EGFR) and c-Src: The Concept of Type III Combi-Targeting” (PLoS ONE, 2015).

Test system: 4T1 cells
Assay: Growth inhibition, SRB assay, 4T1
Conditions: Mus musculus, 4T1, 120 h, read-out: IC50 growth inhibition 4T1
Experimental: Growth inhibition was measured in cells using the sulforhodamine B (SRB) assay [48]. […] The plates were subsequently rinsed with 1% acetic acid, and allowed to dry overnight. […] The results were analyzed using GraphPad Prism 6.0 (GraphPadSoftware, Inc., San Diego, CA) and the sigmoidal dose response curve was used to determine IC50 values. Each experiment was carried out at least four times, in triplicate.

Cc1nc(Nc2ncc(C(=O)Nc3c(C)cccc3Cl)s2)cc(N2CCN(CCOC(=O)CCC(=O)OCCN(C)Cc3ccc(C(=O)Nc4ccc5ncnc(Nc6cccc(Cl)c6)c5c4)cc3)CC2)n1 [AL776]
IC50: 70 ± 10 nM
